Source: US11098059B2, “PRMT5 inhibitors” (Merck Sharp & Dohme Corp., priority 2017, dated 2021)
pEC50, pIC50: −log10 of the molar value. Like-named read-outs stand apart in the source and are kept apart here.

How the values were obtained:
[1] = target: Full-length (FL)-PRMT5-MEP50 enzyme complex (Homo sapiens (Human), UniProt O14744); experiment: PRMT5-MEP50 Enzyme Methylation Assay; assay type: biochemical; on Enzyme Methylation Assay IC50 1: top concentration 100000 nM
Description: PRMT5-MEP50 Enzyme Methylation Assay
PRMT5/MEP50 biochemical assay is a direct measurement of the methylation activity of the enzyme complex on a short peptide substrate derived from the N-terminus of H4 histone. The methylation experiment is performed with recombinant protein. The assessment of inhibitory effect (IC50) of small molecules is measured by the effectiveness of the compounds to inhibit this reaction.
To each well of a white ProxiPlus 384 well-plate, 100 nL of compound (1% DMSO in final assay volume of 10 μL) was dispensed, followed by the addition of 8 μL of 1× assay buffer (50 mM Bicine pH 8.0, 1 mM DTT, 0.004% Tween20, 0.01% BSA) containing 0.5 nM of Full-length (FL)-PRMT5-MEP50 enzyme complex (recombinant proteins from baculovirus-transfected Sf21 cells: FL-PRMT5; MW=[…] and FL-MEP50; MW=38614). Plates were sealed and placed in a 37° C. humidified chamber for 30 minutes pre-incubation with compounds. Subsequently, each reaction was initiated by the addition of 2 μL 1× assay buffer containing 75 nM biotinylated H4R3(Me1) peptide, and 15 μM S-(5′-Adenosyl)-L-Methionine Chloride (SAM). The final reaction in each well of 10 μL consists of 0.5 nM PRMT5-MEP50, 75 nM biotinylated-peptide, and 15 μM SAM. Methylation reactions were allowed to proceed for 150 minutes in a sealed plate at 37° C. Reactions were immediately quenched by the addition of 1 μL of 10% formic acid. Plates were then frozen and shipped to SAMDI™ Tech Inc. to determine the percent conversion from […]. IC50 values were determined by 7 parameters biphasic fit model plotting the percent product conversion vs. (Log10) compound concentrations.

PRMT5 = PRMT5 (Homo sapiens (Human), UniProt O14744); experiment: PRMT5 Cell Target Engagement (TE) Assay; assay type: cell-based; settings: treated 3 days, nuclear SDMA by high content imaging, top concentration 10000 nM
Text: PRMT5 Cell Target Engagement (TE) Assay
The PRMT5 TE assay is a biomarker assay for identifying compounds that inhibit symmetric dimethylation of arginine (SDMA) of PRMT5 substrates. This assay detects symmetrically dimethylated nuclear proteins using high content imaging technology. Detection of the expression of symmetrically dimethylated nucleo proteins is through a mixture of primary rabbit monoclonal antibodies to SDMA (CST 13222), which in turn recognized by an Alexafluor 488 dye-conjugated anti-rabbit IgG secondary antibody. The IN Cell Analyzer 2200 measures nuclear Alexafluor 488 fluorescent dye intensity that is directly related to the level of expression of symmetrically dimethylated nuclear proteins at the single cell level. Nuclear AF488 dye intensities are compared to the mean value for DMSO treated cells […] to report percent of inhibition for each compound-treated well.
Each well of a BD falcon collagen coated black/clear bottom 384-well plate was seeded with 4000 MCF-7 cells and allowed to attach for 5 hours. Media from cell plate was removed at 0.5 mm above the bottom of the plate and replaced with 30 μL of fresh media containing 1.2× compounds in 0.1% DMSO. Cells were treated for 3 days in 37° C. CO2 incubator. On day 3, cells were fixed with Cytofix, permeablized with 0.4% Triton-X-100/Cytofix, and washed with D-PBS without Ca/Mg. Cells were blocked with Licor Odessey blocking reagent for one hour at room temperature, followed by incubation with anti-SDMA (1:1000) antibody at 4° C. overnight. 1 antibody was removed, followed by three washings with DPBS without Ca/Mg and 0.05% Tween20. Hoechst (5 μg/ml), Cell Mask deep stain (1:2000) and Alexa488-conjugated goat anti-rabbit IgG (2 μg/mL) was added for 1 hour at room temperature. A final washing step (three washes) was performed before sealing plate for imaging on In Cell Analyzer 2200. Images from analyzer were uploaded to Columbus (at WP) for image analysis. IC50 values were determined by 4 parameters robust fit of percent fluorescence units vs. (Log10) compound concentrations.

[2] = read-out: Enzyme Methylation Assay IC50_1
[3] = read-out: Enzyme Methylation Assay IC50_2
[4] = MCF-7 cells, read-out: TE Assay EC50

Sequence of Full-length (FL)-PRMT5-MEP50 enzyme complex (O14744 whole entry): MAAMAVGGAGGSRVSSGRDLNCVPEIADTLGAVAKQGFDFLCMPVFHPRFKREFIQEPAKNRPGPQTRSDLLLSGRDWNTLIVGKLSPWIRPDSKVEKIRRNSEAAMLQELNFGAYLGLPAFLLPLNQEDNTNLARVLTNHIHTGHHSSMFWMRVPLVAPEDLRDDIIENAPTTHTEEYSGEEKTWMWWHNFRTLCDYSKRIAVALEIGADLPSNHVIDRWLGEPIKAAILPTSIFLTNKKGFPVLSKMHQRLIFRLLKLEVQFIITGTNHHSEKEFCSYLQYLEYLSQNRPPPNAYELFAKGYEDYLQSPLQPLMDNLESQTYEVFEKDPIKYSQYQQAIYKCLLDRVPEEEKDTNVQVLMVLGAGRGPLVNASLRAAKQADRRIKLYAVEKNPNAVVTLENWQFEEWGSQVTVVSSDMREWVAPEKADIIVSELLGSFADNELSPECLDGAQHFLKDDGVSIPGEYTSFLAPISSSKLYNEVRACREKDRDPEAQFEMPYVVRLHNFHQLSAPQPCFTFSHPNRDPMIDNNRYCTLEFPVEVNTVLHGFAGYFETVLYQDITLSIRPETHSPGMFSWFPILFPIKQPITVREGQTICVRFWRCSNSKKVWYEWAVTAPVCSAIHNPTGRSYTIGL
Sequence of Full-length (FL)-PRMT5-MEP50 enzyme complex (Q9BQA1 whole entry partner): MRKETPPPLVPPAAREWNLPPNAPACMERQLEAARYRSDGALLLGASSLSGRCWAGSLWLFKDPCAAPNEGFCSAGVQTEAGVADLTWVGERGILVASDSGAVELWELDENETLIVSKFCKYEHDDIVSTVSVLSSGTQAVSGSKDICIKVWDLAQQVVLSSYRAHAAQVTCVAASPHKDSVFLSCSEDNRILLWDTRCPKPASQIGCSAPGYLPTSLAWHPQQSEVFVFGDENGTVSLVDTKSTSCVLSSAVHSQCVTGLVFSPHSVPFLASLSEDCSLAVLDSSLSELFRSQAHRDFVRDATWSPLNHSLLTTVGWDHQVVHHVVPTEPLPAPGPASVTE
Sequence of PRMT5 (O14744 whole entry): as the sequence (O14744 whole entry) above
Sequence of PRMT5 (Q9BQA1 whole entry partner): as the sequence (Q9BQA1 whole entry partner) above

SMILES | pIC50 [1, 2] | pIC50 [1, 3] | pEC50 (PRMT5; [4]) | pEC50 (PRMT5; TE Assay EC50, MCF-7 cells)
CO[C@H]1C[C@H]2CC[C@@H](C1)N2C(=O)c1ccc2c(c1)C(C)(C)CN(C[C@H](O)[C@@H]1Cc3ccccc3CN1)C2=O [Example 24, 2-((S)-2-hydroxy-2-((S)-1,2,3,4-tetrahydroisoquinolin-3-yl)ethyl)-6-((1R,3S,5S)-3-methoxy-8-azabicyclo[3.2.1]octane-8-carbonyl)-4,4-dimethyl-3,4-dihydroisoquinolin-1(2H)-one] | 7.95 | 5.12 | 5.58 | 
CO[C@@H]1C[C@H]2CC[C@@H](C1)N2C(=O)c1ccc2c(c1)C(C)(C)CN(C[C@@H](O)[C@@H]1Cc3ccccc3CN1)C2=O [Example 25, 2-((R)-2-hydroxy-2-((S)-1,2,3,4-tetrahydroisoquinolin-3-yl)ethyl)-6-((1R,3S,5S)-3-methoxy-8-azabicyclo[3.2.1]octane-8-carbonyl)-4,4-dimethyl-3,4-dihydroisoquinolin-1(2H)-one] | 9.36 | 7.30 |  | 8.42
CO[C@@H]1C[C@H]2CC[C@@H](C1)N2C(=O)c1ccc2c(c1)C(C)(C)CN(C[C@H](O)[C@@H]1Cc3ccccc3CN1)C2=O [Example 26, 2-((S)-2-hydroxy-2-((S)-1,2,3,4-tetrahydroisoquinolin-3-yl)ethyl)-6-((1R,3R,5S)-3-methoxy-8-azabicyclo[3.2.1]octane-8-carbonyl)-4,4-dimethyl-3,4-dihydroisoquinolin-1(2H)-one] | 7.61 | 4.84 | 5.33 | 
CC1(C)CN(C[C@@H](O)[C@@H]2Cc3ccccc3CN2)C(=O)c2ccc(C(=O)N3C4COC5C4OCC53)cc21 [Example 27, 6-(hexahydro-3,6-epiminofuro[3,2-b]furan-7-carbonyl)-2-((R)-2-hydroxy-2-((S)-1,2,3,4-tetrahydroisoquinolin-3-yl)ethyl)-4,4-dimethyl-3,4-dihydroisoquinolin-1(2H)-one] | 9.46 | 6.94 | 7.73 | 
CC1(C)CN(C[C@H](O)[C@@H]2Cc3ccccc3CN2)C(=O)c2ccc(C(=O)N3C4COC5C4OCC53)cc21 [Example 28, 6-(hexahydro-3,6-epiminofuro[3,2-b]furan-7-carbonyl)-2-((S)-2-hydroxy-2-((S)-1,2,3,4-tetrahydroisoquinolin-3-yl)ethyl)-4,4-dimethyl-3,4-dihydroisoquinolin-1(2H)-one] | 7.46 | 4.46 | ≤ 5.00 | 
CC1(C)CN(C[C@@H](O)[C@@H]2Cc3ccccc3CN2)C(=O)c2ccc(N3C(=O)C4CCC3CC4)cc21 [Example 29, 2-{(2R)-2-hydroxy-2-[(3S)-1,2,3,4-tetrahydroisoquinolin-3-yl]ethyl}-4,4-dimethyl-6-(3-oxo-2-azabicyclo[2.2.2]octan-2-yl)-3,4-dihydroisoquinolin-1(2H)-one] | 9.08 | 6.45 | 7.13 | 
O=C1c2ccc(C(=O)N3C4CCC3COC4)cc2CCN1CC(O)[C@@H]1Cc2ccccc2CN1 (stereo partly drawn) [Example 30, 2-{2-hydroxy-2-[(3S)-1,2,3,4-tetrahydroisoquinolin-3-yl]ethyl}-6-(3-oxa-8-azabicyclo[3.2.1]oct-8-ylcarbonyl)-3,4-dihydroisoquinolin-1(2H)-one] | 7.78 | 5.20 | 6.06 | 
